Test results from patent US7211566B2 (Universite De Sherbrooke, priority 2003, dated 2007).
Square brackets hold non-standard residues; d marks the D form. Peptide text beside a SMILES is read from it. Oic = O=C(O)[C@@H]1C[C@@H]2CCCC[C@@H]2N1; d2Nal = N[C@H](Cc1ccc2ccccc2c1)C(=O)O; αMeF = C[C@](N)(Cc1ccccc1)C(=O)O; Orn = NCCC[C@H](N)C(=O)O

System: STZ diabetic mice
Experiment: Hot plate test, type-1 diabetic hyperalgesia
Type: in vivo
Details: STZ diabetic mice, i.p., at time of maximal inhibition (20 min)
Description: Male CD-1 mice weighting between 25–30 g (Charles River Breeding Laboratory, St-Constant, QC, Canada) were used. The mice were housed four by cage with free access to food and water. They were maintained under conditions of standard lighting, (alternating 12-h light/dark cycle), temperature (22±0.5° C.) and humidity (60±10%) with food and water available at libitum. Animals were used only once in a given experiment. Experiments were conducted between 10:00 and 18:00 h.
Streptozotocin (Pharmacia & Upjohn Incorporation, Mississauga, ON, Canada) was dissolved in saline at a pH of 4.5 and administered to mice i.p. The BKB1 agonist desArg^9BK and compound c were dissolved in saline and administered to mice i.p.
Insulin-dependent diabetes mellitus (IDDM) was induced in mice using STZ. Male CD-1 mice were given a single high i.p. dose of STZ (200 mg/kg) (McEvoy et al., 1984, J Clin Invest 74, 715–722). […] Blood glucose levels were determined with an automatic analyzer (Glucometer Elite XL, Bayer Incorporation, Toronto, Ontario, Canada) using glucose oxidase/potassium ferricyanide reagent strips. […]
The hot plate test was adapted from the technique of Eddy and Leimbach (1953, J Pharmacol Exp Ther 107, 385–389). […] When the pain threshold is reached the animal starts to react by licking its hind paw or to jump, and the reaction time is recorded with a built-in timer, with a maximum cut-off time of 30 s to avoid tissue damage. […]
The effect of the selected drugs on nociception was determined by converting the hot plate, the plantar stimulation, the tail immersion or the tail flick responses from latencies into MPE (Maximum Percent Effect) according to the following equation (Bhargava and Zhao, 1996, Neuropeptides, 30, 219–223): […]
In all tests, pre-treatment latencies were determined three times with an interval of 24 h starting three days before the injection of STZ or saline and the mean was calculated in order to obtain stable pre-drug response latency. […]

## CC[C@H](C)[C@H](NC(=O)[C@@H](Cc1ccc2ccccc2c1)NC(=O)[C@H](CO)NC(=O)[C@](C)(Cc1ccccc1)NC(=O)CNC(=O)[C@@H]1CCCN1C(=O)[C@@H]1C[C@@H]2CCCC[C@@H]2N1C(=O)[C@H](CCCNC(=N)N)NC(=O)[C@H](CCCN)NC(C)=O)C(=O)O [compound c, Ac-Orn[Oic^2,(α-Me)Phe^5,D-βNal^7,Ile^8]desArg^9BK] (Ac-[Orn]R[Oic]PG[αMeF]S[d2Nal]I-OH)
  ID50: 0.078 ± 0.003 mg/kg
